According to ChEMBL document CHEMBL1759889, “Susceptibility and mode of binding of the Mycobacterium tuberculosis cysteinyl transferase mycothiol ligase to tRNA synthetase inhibitors” (Bioorg Med Chem Lett, 2011):
The source made the active and inactive calls. The rule behind the calls is not given here.

Assays:
[1] = molecular target: T1, L-cysteine:1D-myo-inositol 2-amino-2-deoxy-alpha-D-glucopyranoside ligase (Mycobacterium tuberculosis, UniProt P9WJM9); assay: Inhibition of Mycobacterium tuberculosis recombinant MBP-tagged MshC assessed as formation of fluorescently labeled Cys-GlcN-Ins by HPLC
T1 sequence (P9WJM9 whole entry): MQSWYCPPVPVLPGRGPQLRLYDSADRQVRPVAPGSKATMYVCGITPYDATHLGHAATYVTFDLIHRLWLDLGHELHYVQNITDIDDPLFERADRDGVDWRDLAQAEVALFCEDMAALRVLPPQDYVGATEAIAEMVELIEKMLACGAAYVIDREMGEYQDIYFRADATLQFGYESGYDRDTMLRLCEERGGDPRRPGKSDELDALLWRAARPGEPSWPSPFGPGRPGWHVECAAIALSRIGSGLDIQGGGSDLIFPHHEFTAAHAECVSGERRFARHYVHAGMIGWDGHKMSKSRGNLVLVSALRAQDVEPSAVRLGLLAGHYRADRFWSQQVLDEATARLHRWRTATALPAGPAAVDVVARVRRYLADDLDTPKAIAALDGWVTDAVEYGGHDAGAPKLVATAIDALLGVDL

[2] = molecular target: T2, L-cysteine:1D-myo-inositol 2-amino-2-deoxy-alpha-D-glucopyranoside ligase (Mycobacterium tuberculosis) (UniProt P9WJM9); assay: Binding affinity to Mycobacterium tuberculosis recombinant MBP-tagged MshC by STD-NMR analysis
T2 sequence (whole entry): T1 sequence (P9WJM9 whole entry)

[3] = molecular target: T2, L-cysteine:1D-myo-inositol 2-amino-2-deoxy-alpha-D-glucopyranoside ligase (Mycobacterium tuberculosis); assay: Binding affinity to Mycobacterium tuberculosis recombinant MBP-tagged MshC by transferred NOESY analysis
[4] = molecular target: T1, L-cysteine:1D-myo-inositol 2-amino-2-deoxy-alpha-D-glucopyranoside ligase; assay: Binding affinity to Mycobacterium tuberculosis recombinant MBP-tagged MshC by isothermal titration calorimetry assay

Work on `C[C@@H]1C[C@H](C)C[C@H](C)[C@@H](O)CC(=O)O[C@H]([C@@H]2CCC[C@H]2C(=O)O)C/C=C/C=C(/C#N)[C@H](O)[C@@H](C)C1` [BORRELIDIN] yielded an IC50 [1] of over 2 mM.

Molecule `Nc1ncnc2c1ncn2[C@@H]1O[C@H](COS(=O)(=O)NC(=O)[C@@H](N)CO)[C@@H](O)[C@H]1O` has an IC50 [1] of 5 mM.

`C/C(=C\C(=O)OCCCCCCCCC(=O)O)C[C@@H]1OC[C@H](C[C@@H]2O[C@H]2[C@@H](C)[C@H](C)O)[C@@H](O)[C@H]1O` [MUPIROCIN] gave an IC50 [1] of over 5 mM.

In the case of `Nc1ncnc2c1ncn2[C@@H]1O[C@H](COS(=O)(=O)NC(=O)[C@@H](N)CC(=O)O)[C@@H](O)[C@H]1O`, the Activity [2] is reported as “inactive”, the IC50 [1] is reported as 1.2 mM and the Activity [3] is reported as “inactive”.

`Nc1ncnc2c1ncn2[C@@H]1O[C@H](COS(=O)(=O)NC(=O)[C@@H](N)CS)[C@@H](O)[C@H]1O` was tested, and the Kd [4] was 48.5 nM, the Activity [2] was “inactive” and the IC50 [1] was 5e-05 mM.

With `C[C@@H]1Cc2c(Cl)cc(C(=O)N[C@@H](Cc3ccccc3)C(=O)O)c(O)c2C(=O)O1` [3R14S-OCHRATOXIN A] the IC50 [1] was 2.5 mM.

`N[C@H]1CCC[C@H]1C(=O)O` was tested, and the IC50 [1] was over 4 mM.
